Assays:
Bile salt export pump = Bile salt export pump (Homo sapiens, UniProt O95342); type: functional
Adenosine receptor A3 = molecular target: T1, Adenosine receptor A3 (Homo sapiens, UniProt P0DMS8)
T1 sequence (P0DMS8 whole entry): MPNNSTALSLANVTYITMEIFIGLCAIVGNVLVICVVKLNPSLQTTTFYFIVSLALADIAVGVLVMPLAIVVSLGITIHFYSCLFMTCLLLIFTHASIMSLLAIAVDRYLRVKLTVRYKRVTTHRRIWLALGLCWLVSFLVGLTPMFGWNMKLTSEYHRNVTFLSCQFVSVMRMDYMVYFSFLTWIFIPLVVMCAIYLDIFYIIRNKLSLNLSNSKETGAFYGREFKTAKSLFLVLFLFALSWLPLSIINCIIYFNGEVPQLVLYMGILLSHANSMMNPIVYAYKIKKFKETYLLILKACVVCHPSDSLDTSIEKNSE

[1] = molecular target: T2, Alpha-1A adrenergic receptor (Homo sapiens, UniProt P35348); type: functional, cell-based
T2 sequence (P35348 whole entry): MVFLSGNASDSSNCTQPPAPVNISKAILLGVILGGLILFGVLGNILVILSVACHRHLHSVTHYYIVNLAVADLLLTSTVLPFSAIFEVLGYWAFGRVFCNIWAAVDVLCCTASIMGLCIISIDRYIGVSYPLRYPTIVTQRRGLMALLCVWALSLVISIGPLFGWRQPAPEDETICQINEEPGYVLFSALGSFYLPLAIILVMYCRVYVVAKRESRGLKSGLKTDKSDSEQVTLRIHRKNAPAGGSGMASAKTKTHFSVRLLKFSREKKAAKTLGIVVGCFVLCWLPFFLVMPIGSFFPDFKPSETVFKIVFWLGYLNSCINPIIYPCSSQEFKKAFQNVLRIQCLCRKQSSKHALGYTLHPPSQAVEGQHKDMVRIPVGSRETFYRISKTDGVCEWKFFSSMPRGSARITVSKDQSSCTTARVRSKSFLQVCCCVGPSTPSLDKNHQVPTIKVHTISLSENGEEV

[2] = molecular target: Beta-2 adrenergic receptor (Homo sapiens, UniProt P07550); type: functional, cell-based
Beta-2 adrenergic receptor, sequence (P07550 whole entry): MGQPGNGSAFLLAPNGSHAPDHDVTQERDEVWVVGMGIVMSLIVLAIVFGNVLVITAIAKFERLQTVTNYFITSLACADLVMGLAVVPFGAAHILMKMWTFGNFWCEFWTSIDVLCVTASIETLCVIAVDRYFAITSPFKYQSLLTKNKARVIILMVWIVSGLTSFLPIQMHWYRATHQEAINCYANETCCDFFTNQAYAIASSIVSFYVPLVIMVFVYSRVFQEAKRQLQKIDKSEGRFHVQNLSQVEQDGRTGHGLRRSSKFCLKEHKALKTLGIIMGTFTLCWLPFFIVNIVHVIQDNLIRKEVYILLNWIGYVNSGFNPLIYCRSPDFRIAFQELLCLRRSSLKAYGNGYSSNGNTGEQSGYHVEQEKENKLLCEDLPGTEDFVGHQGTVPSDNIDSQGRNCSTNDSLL

[3] = molecular target: T3, Gastrin/cholecystokinin type B receptor (Homo sapiens, UniProt P32239)
T3 sequence (P32239 whole entry): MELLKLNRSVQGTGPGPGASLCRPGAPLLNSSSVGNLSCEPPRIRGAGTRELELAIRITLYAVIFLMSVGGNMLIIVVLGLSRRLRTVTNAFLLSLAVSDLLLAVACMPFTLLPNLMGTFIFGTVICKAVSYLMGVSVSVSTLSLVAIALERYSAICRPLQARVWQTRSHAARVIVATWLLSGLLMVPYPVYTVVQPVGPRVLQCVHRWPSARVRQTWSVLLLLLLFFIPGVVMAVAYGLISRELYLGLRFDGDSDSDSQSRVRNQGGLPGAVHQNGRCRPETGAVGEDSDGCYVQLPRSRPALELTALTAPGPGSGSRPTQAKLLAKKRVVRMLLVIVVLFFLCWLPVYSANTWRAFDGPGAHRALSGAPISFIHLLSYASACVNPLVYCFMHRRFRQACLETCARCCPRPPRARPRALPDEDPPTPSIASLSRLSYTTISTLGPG

[4] = molecular target: T4, Muscarinic acetylcholine receptor M2 (Homo sapiens, UniProt P08172); type: functional, cell-based
T4 sequence (P08172 whole entry): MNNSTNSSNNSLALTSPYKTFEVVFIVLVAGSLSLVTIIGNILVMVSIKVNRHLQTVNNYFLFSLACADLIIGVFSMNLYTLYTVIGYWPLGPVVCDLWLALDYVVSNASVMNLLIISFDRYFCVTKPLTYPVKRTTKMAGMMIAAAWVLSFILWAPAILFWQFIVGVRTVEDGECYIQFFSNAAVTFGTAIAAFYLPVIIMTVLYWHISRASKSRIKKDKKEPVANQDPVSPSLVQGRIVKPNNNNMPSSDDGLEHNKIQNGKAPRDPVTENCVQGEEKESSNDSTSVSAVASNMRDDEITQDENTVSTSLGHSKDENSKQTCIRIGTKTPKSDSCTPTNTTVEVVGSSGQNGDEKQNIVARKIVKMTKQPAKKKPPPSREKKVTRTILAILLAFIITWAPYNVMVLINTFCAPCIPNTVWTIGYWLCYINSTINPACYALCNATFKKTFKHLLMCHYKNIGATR

Cannabinoid receptor 1 = Cannabinoid receptor 1 (Homo sapiens, UniProt P21554); type: functional, cell-based
Cannabinoid receptor 1, sequence (P21554 whole entry): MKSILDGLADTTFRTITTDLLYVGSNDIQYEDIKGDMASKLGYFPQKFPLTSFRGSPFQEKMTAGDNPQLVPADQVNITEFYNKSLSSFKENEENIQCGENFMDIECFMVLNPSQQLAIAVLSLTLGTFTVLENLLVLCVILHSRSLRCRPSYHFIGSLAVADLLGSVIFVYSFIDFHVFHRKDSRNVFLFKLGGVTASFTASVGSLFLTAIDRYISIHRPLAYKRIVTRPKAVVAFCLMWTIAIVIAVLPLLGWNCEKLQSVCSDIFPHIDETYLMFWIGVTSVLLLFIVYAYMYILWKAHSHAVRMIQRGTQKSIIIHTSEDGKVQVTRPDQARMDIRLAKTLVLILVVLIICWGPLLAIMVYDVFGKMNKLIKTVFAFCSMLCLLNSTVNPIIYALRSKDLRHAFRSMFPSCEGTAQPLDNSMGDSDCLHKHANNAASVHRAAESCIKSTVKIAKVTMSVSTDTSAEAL

[5] = molecular target: Gamma-aminobutyric acid receptor subunit alpha-1 (Rattus norvegicus, UniProt P62813)
Gamma-aminobutyric acid receptor subunit alpha-1, sequence (P62813 whole entry): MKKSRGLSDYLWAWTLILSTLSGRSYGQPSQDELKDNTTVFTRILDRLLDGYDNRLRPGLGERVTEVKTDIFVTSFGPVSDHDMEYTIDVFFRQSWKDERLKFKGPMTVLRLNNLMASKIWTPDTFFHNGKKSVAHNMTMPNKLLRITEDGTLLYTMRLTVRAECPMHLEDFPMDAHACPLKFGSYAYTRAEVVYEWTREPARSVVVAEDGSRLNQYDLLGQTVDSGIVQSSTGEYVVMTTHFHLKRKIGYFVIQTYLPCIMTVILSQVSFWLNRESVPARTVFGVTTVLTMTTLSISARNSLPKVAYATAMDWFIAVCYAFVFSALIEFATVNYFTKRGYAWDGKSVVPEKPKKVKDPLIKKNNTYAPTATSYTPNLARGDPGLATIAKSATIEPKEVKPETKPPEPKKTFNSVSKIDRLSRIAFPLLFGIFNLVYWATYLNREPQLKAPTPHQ

[6] = molecular target: T5, 5-hydroxytryptamine receptor 1A (Homo sapiens, UniProt P08908); type: functional, cell-based
T5 sequence (P08908 whole entry): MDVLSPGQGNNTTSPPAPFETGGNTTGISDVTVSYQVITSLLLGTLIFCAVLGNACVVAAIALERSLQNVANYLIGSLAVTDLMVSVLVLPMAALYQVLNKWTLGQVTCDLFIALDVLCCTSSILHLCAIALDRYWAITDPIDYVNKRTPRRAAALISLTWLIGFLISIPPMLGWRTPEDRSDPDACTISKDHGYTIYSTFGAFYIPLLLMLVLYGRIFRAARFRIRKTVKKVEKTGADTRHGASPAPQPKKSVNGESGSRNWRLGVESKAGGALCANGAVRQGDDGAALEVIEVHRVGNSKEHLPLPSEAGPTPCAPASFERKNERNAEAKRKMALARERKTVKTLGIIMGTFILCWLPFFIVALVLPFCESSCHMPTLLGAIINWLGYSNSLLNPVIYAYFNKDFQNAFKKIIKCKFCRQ
Note: assay procedure not described here.

Bile salt export pump, sequence (O95342 whole entry): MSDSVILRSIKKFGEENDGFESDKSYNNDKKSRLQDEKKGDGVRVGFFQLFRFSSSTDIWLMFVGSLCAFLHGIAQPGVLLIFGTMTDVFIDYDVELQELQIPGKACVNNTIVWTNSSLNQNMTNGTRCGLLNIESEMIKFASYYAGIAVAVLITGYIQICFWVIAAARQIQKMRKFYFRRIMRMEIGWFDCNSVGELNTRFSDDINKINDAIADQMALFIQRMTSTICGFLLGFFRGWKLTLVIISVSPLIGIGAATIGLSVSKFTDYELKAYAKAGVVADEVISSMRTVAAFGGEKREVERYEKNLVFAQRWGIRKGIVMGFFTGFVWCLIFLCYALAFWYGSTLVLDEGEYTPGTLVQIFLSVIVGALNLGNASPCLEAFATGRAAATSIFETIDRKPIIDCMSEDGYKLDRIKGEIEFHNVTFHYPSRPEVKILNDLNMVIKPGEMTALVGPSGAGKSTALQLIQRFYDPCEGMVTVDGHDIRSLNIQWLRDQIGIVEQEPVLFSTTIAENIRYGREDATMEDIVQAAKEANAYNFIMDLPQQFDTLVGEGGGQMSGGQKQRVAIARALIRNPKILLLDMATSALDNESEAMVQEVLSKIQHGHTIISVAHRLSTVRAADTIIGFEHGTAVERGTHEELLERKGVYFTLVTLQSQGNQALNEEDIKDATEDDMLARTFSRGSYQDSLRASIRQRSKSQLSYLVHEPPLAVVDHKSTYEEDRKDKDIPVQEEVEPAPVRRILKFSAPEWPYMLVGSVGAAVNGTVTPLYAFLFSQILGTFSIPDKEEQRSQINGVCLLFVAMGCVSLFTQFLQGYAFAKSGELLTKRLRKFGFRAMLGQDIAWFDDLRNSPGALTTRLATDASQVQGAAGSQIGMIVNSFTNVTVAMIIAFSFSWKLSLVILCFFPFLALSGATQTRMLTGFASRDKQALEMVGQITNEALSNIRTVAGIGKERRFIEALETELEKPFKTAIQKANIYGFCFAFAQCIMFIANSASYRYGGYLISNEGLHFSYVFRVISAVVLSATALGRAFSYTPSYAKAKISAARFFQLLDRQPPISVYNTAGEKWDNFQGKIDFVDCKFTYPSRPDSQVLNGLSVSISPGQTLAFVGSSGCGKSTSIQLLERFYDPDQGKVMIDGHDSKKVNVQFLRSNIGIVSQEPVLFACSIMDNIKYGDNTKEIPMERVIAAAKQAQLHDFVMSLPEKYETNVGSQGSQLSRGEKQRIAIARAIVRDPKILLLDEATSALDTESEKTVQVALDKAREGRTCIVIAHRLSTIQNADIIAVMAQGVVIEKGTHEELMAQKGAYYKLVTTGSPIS

Row | SMILES | AC50 (Bile salt export pump) [µM] | AC50 (Adenosine receptor A3) [µM] | AC50 [1] [µM] | AC50 [2] [µM] | AC50 [3] [µM] | AC50 [4] [µM] | AC50 (Cannabinoid receptor 1) [µM] | AC50 [5] [µM] | AC50 [6] [µM]
1 | CCCc1nc2c(C)cc(-c3nc4ccccc4n3C)cc2n1Cc1ccc(-c2ccccc2C(=O)O)cc1 | 5 | 17.4 | > 30 | > 30 | > 30 | 5.16 | > 30 | > 30 | > 30
2 | CC(=O)NO [ACETOHYDROXAMIC ACID] | > 300 | > 30 | – | – | – | – | – | > 30 | –
3 | O=C(O)c1ccccc1 [BENZOIC ACID] | 260 | > 30 | – | – | – | – | – | > 30 | –
4 | Nc1c(CC(=O)O)cccc1C(=O)c1ccc(Br)cc1 [BROMFENAC] | 88 | – | – | – | – | – | – | > 30 | –
5 | O=C(O)Cc1ccccc1Nc1c(Cl)cccc1Cl [DICLOFENAC] | > 300 | > 3 | > 30 | > 30 | > 30 | > 10 | > 30 | – | > 10
6 | Cc1ccc(C)c(OCCCC(C)(C)C(=O)O)c1 [GEMFIBROZIL] | > 300 | > 30 | > 30 | > 30 | > 30 | > 10 | > 30 | > 30 | > 10
7 | Cc1cc(=O)oc2cc(O)ccc12 [HYMECROMONE] | > 300 | > 30 | – | – | – | – | – | > 30 | –
8 | COc1cc(C(C)=O)ccc1OCCCN1CCC(c2noc3cc(F)ccc23)CC1 [ILOPERIDONE] | 40 | – | > 30 | > 30 | 9.33 | 8.3 | > 30 | > 30 | > 30
9 | C=CC(=O)Nc1cccc(Oc2nc(Nc3ccc(N4CCN(C)CC4)cc3)nc3ccsc23)c1 [OLMUTINIB] | 13 | 0.003 | – | – | – | – | – | > 30 | –
10 | CC(CN1c2ccccc2Sc2ccccc21)N(C)C (configuration not stated) [PROMETHAZINE] | > 300 | – | > 30 | > 30 | > 30 | 0.322 | > 30 | > 30 | > 10
11 | CC(C)[C@H](N)C(=O)OCCOCn1cnc2c(=O)[nH]c(N)nc21 [VALACYCLOVIR] | > 300 | – | > 30 | > 30 | > 30 | > 10 | > 30 | – | > 10
12 | O=C1Cc2cc(CCN3CCN(c4nsc5ccccc45)CC3)c(Cl)cc2N1 [ZIPRASIDONE] | 18 | 8.66 | > 30 | > 30 | > 30 | > 10 | > 30 | > 30 | 0.95
